Reference: US20050164234A1, “Methods of using mammalian RNase H and compositions thereof” (priority 1997, published 2005)
Where two headings read alike, the source gives them in different places.

Experiments:
[1] = tested on: 17 nucleotide long RNA/DNA heteroduplex; assay: Initial cleavage rates of RNA/DNA heteroduplex by wild-type and mutant human RNase H1 proteins; assay type: biochemical; conditions: 0.5 ng enzyme, 37° C., average of n≧3; detection limit = <1% of heteroduplex substrate cleaved over 60 min
Excerpt: The oligoribonucleotides were synthesized on a PE-ABI 380B synthesizer using 5′-O-silyl-2′-O-bis(2-acetoxyethoxy)methyl ribonucleoside phosphoramidites and procedures described elsewhere. Scaringe et al., 1998, J. Am. Chem. Soc. 120, 11820-11821/The oligoribonucleotides were purified by reverse-phase HPLC. The DNA oligonucleotides were synthesized on a PE-ABI 380B automated DNA synthesizer and standard phosphoramidite chemistry. The DNA oligonucleotides were purified by precipitation 2 times out of 0.5 M NaCl with 2.5 volumes of ethyl alcohol.
The RNA substrate is 5′-end-labeled with ^32P using 20 u of T4 polynucleotide kinase (Promega, Wis.), 120 pmol (7000 Ci/mmol) [γ-^32P]ATP (ICN, CA), 40 pmol RNA, 70 mM tris, pH 7.6, 10 mM MgCl2 and 50 mM DTT. The kinase reaction is incubated at 37° C. for 30 min. The labeled oligoribonucleotide was purified by electrophoresis on a 12% denaturing polyacrylamide gel. The specific activity of the labeled oligonucleotide is approximately 3000 to 8000 cpm/fmol.
The heteroduplex substrate was prepared in 100 μL containing 50 nM unlabeled oligoribonucleotide, 10^5 cpm of ^32P labeled oligoribonucleotide, 100 nM complementary oligodeoxynucleotide and hybridization buffer [20 mM tris, pH 7.5, 20 mM KCl]. Reactions were heated at 90° C. for 5 min, cooled to 37° C. and 60 u of Prime RNase Inhibitor (5 Prime→3 Prime, CO) and MgCl2 at a final concentration of 1 mM were added. Hybridization reactions were incubated 2-16 h at 37° C. and β-mercaptoethanol (BME) was added at final concentration of 20 mM.
The heteroduplex substrate was digested with 0.5 ng human RNase H1 at 37° C. A 10 μl aliquot of the cleavage reaction was removed at time points ranging from 2-120 min and quenched by adding 5 μL of stop solution (8 M urea and 120 mM EDTA). The aliquots were heated at 90° C. for two min, resolved in a 12% denaturing polyacrylamide gel and the substrate and product bands were quantitated on a Molecular Dynamics PhosphorImager. The concentration of the converted product was plotted as a function of time. The initial cleavage rate was obtained from the slope (mole RNA cleaved/min) of the best-fit line for the linear portion of the plot, which comprises, in general <10% of the total reaction and data from at least five time points.
The initial cleavage rates (V0) were determined for the human RNase H1 enzyme and the mutant proteins using a 17 nucleotide long RNA/DNA heteroduplex, (Table 5).
Initial cleavage rates were determined as described in above. The initial cleavage rates are an average of n≧3 measurements. *Detection limit=cleavage rates resulting in <1% of the heteroduplex substrate over 60 min.

DNA/2′F heteroduplex [2] = assay: Binding affinity of RNase H1 proteins by inhibition analysis with noncleavable heteroduplex
Method: Binding affinities were determined by inhibition analysis. Lima and Crooke, 1997, Biochemistry 36, 390-398. The RNA-DNA heteroduplex was prepared as described above except in a final volume of 60 μL and with the concentration of the heteroduplex ranging from 10 nM to 500 nM. The non-cleavable heteroduplex substrate was prepared in 60 μL of hybridization buffer containing equimolar concentrations of oligodeoxynucleotide and complementary 2′-fluoro modified oligonucleotide in excess of the RNA-DNA hybrid. The DNA-2′-fluoro duplex was added to the RNA-DNA duplex and the combined reaction was digested with human RNase H1 as described for the determination of initial rates. The reactions were quenched, analyzed and quantitated as described for the determination of initial rates.
The binding affinities of human RNase H1 and the RNase H1[ΔI-II] mutant were determined indirectly using a competition assay as previously described. Lima and Crooke, 1997, Biochemistry 36, 390-398. Briefly, the cleavage rate of the RNA/DNA heteroduplex was determined at a variety of substrate concentrations in both the presence and absence competing noncleavable DNA/2′F heteroduplex.

RNA/DNA substrate = assay: RNase H activity assay of renatured recombinant human RNase H1; assay type: biochemical; conditions: 10 ng purified renatured enzyme, 2 hours
DNA/2′F heteroduplex [3] = conditions: derived from previously reported data, Lima and Crooke (1997); cited from earlier work

Row | Molecule | V0 [1] [pM/min] | Kd (DNA/2′F heteroduplex [2]; for DNA/2′F heteroduplex, from ≧2 slopes of Lineweaver-Burk analysis) [µM] | binding affinity for heteroduplex substrate tighter than RNase H1[ΔI-II] mutant (DNA/2′F heteroduplex [2]; wild-type versus ΔI-II) [fold] | cleavage of the substrate (RNA/DNA substrate) [%] | Kd (DNA/2′F heteroduplex [3]) [µM]
1 | Wild-type RNase H1: cloned and expressed human RNase H1, 286 amino acids, his-tag fusion protein; SEQ ID NO: 1 | 658 ± 130 | 0.075 | < 2 | 40 | –
2 | E. coli RNase H1: E. coli RNase H1 enzyme, 155 amino acids, literature comparator (protein) MLKQVEIFTDGSCLGNPGPGGYGAILRYRGREKTFSAGYTRTTNNRMELMAAIVALEALKEHCEVILSTDSQYVRQGITQWIHNWKKRGWKTADKKPVKNVDLWQRLDAALGQHQIKWEWVKGHAGHPENERCDELARAAAMNPTLEDTGYQVEV | – | – | – | – | 1.6
